Data set [1] in a line: preparation and stability of crystal suspensions of microcrystalline rapamycin / everolimus in solutions of different tri-O-acylglycerols (Examples 2, 3). As to conditions: ethyl acetate/heptane solution; standing and temperature elevation.
Text: In the first step, solutions of tri-O-acylglycerols were first prepared in a solvent mixture. Subsequently, the solutions were combined with microcrystals of rapamycin and everolimus to investigate which tri-O-acylglycerols could be used to obtain stable crystal suspensions. The composition of the solvents and solvent mixture varied depending on the active agent used. The solutions and solvent mixtures prepared in the example apply to rapamycin (SIR) and everolimus (EVR). For the preparation of the solutions, an ethyl acetate/heptane solvent mixture was used here as an example.
To prepare the solutions, 770 mg of the respective tri-O-acylglycerol and optionally 150 mg BHT were dissolved in 14 g ethyl acetate (15.6 mL). Then, 57.4 g of n-heptane (84.4 mL) was added. Subsequently, homogenization and filtration were performed. The total volume of the solvent mixture is 100 mL.
To a precisely weighed amount of dry microcrystals of the previously prepared limus active agent, a defined amount of the solutions containing tri-O-acylglycerol and optionally antioxidant is carefully added. It was investigated whether the microcrystals of the limus active agent are not soluble in the solutions and whether suspensions are formed.
To check whether crystal suspension can be prepared, to each 200 mg of rapamycin in the form of microcrystals or 200 mg of everolimus in the form of microcrystals were carefully added 10 mL of one of the solutions 1a) to 1t) at room temperature. Three mixtures of 10 mL of solution for each solution were prepared. After combining, it was tested whether the microcrystals of limus active agents dissolved directly in the solutions. For solutions where there was no immediate dissolution of the microcrystals of the limus active agents, the suspensions of the solutions without antioxidant were allowed to stand for a period of 100 h and tested again to see if the microcrystals of the limus active agents dissolved.
Three mixtures of 10 mL of solution for each solution were prepared. After combining, it was tested whether the microcrystals of limus active agents dissolved directly in these solutions. For solutions where there was no immediate dissolution of the microcrystals of the limus active agents, the suspensions of the solutions without antioxidant were allowed to stand for a period of 100 hours and tested again to see if the microcrystals of the limus active agents dissolved.
The conditions of data set [2]: cited from earlier work.
The conditions of data set [3]: non-solvents, rounded values (Table 2); cited from earlier work.

`CCCCCCCCCC(=O)OCC(COC(=O)CCCCCCCCC)OC(=O)CCCCCCCCC` [Tridecanoylglycerol, tridecanoylglycerol]: the “stability of the crystal suspension of microcrystalline everolimus and rapamycin with the tri-O-acylglycerol” value (“stability” for short) in data set [1] was “remained stable even after 100 h and under temperature elevation”.

Regarding `CCCCCCCCC(=O)OCC(COC(=O)CCCCCCCC)OC(=O)CCCCCCCC` [Trinonanoylglycerol, trinonanoylglycerol], the “stability” value in data set [1] was “remained stable after 24-48 hours and under temperature elevation”. In addition, in data set [2], the solubility in water entry is listed as “practically insoluble in water”. As for `CCCCCCCC(=O)OCC(COC(=O)CCCCCCC)OC(=O)CCCCCCC` [Trioctanoylglycerol, trioctanoylglycerol], the “stability” value in data set [1] is “remained stable even after 100 h and under temperature elevation”. Moreover, the solubility in water result in data set [2] was “practically insoluble in water”. Regarding `CCCCCCCCCCC(=O)OCC(COC(=O)CCCCCCCCCC)OC(=O)CCCCCCCCCC` [Triundecanoylglycerol, 1,3-bis(undecanoyloxy)propan-2-yl-undecanoate], the “stability” value in data set [1] is “remained stable after 24-48 hours and under temperature elevation”. The solubility in water entry in data set [2] is given as “practically insoluble in water”. In the case of `CC(C)(C)C1CCCCC1` [tert-butylcyclohexane], the logKOW in data set [3] is listed as 4.0.

The record behind these values is patent publication US20230414839A1, “COATED MEDICAL PRODUCT” (HEMOTEQ AG, priority 2020, published 2023).
